From patent US20120029187A1, “HALOALKYLSULFONANILIDE DERIVATIVE” (Nissan Chemical Industries, Ltd., priority 2009, published 2012)

Assays:
Type in all cases: in vivo
transplanted rice = assay: Test Example 1: preemergence treatment under submerged conditions, effect on crop; settings: dose 2.52 g/a
Outline: (§1)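 Flooded-paddy preemergence assay; EC diluted with water, surface-applied at weed seeding; doses g/a; rice transplanted at 2.5 leaves; 0–5 mortality score after 3 weeks.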

barnyardgrass [1] = assay: Test Example 2: herbicidal effects during the vegetation period under submerged conditions; settings: treatment during the vegetation period under submerged conditions; dose 2.52 g/a
Outline: (§2)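 Barnyardgrass, bulrush and ducksalad were co-sown in alluvial soil flooded to 4 cm and grown in a greenhouse at 25 to 30° C. At the 1- or 2-leaf stage, water-diluted emulsifiable concentrates went onto the water surface at set doses (g/a). Herbicidal effect was scored three weeks later on a graded scale.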

bulrush [2] = assay: as above; settings: treatment during the vegetation period under submerged conditions; dose 2.52 g/a
Outline: as §2

ducksalad [3] = assay: as above; settings: treatment during the vegetation period under submerged conditions; dose 2.52 g/a
Outline: as §2

barnyardgrass [4] = assay: Test Example 1: herbicidal effects in preemergence treatment under submerged conditions; settings: dose 2.52 g/a
Outline: as §1

bulrush [5] = assay: as above; settings: dose 2.52 g/a
Outline: as §1

ducksalad [6] = assay: as above; settings: dose 2.52 g/a
Outline: as §1

common chickweed [7] = assay: Test Example 4: herbicidal effect in foliage treatment; settings: dose 3.2 g/a, three weeks after application
Outline: (§3)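 A uniform foliar spray of emulsifiable concentrate, diluted with water to give the stated g/a dose, was applied to plants raised for 14 days from seed in sterilized diluvial soil at 25 to 30° C. Herbicidal effects were scored three weeks later.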

Italian ryegrass [8] = assay: as above; settings: dose 3.2 g/a, three weeks after application
Outline: as §3

common ragweed [9] = assay: as above; settings: dose 3.2 g/a, three weeks after application
Outline: as §3

giant foxtail [10] = assay: as above; settings: dose 3.2 g/a, three weeks after application
Outline: as §3

redroot pigweed [11] = assay: as above; settings: dose 3.2 g/a, three weeks after application
Outline: as §3

velvetleaf [12] = assay: as above; settings: dose 3.2 g/a, three weeks after application
Outline: as §3

barnyardgrass [13] = assay: as above; settings: dose 3.2 g/a, three weeks after application
Outline: as §3

common lambsquater [14] = assay: as above; settings: dose 3.2 g/a, three weeks after application
Outline: as §3

large crabgrass [15] = assay: as above; settings: dose 3.2 g/a, three weeks after application
Outline: as §3

water foxtail [16] = assay: as above; settings: dose 3.2 g/a, three weeks after application
Outline: as §3

posumbu knotweed [17] = assay: as above; settings: dose 3.2 g/a, three weeks after application
Outline: as §3

common chickweed [18] = assay: Test Example 3: herbicidal effects in soil treatment; settings: dose 3.2 g/a
Outline: (§4)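 Seeds were sown in sterilized diluvial soil and covered with about 1.5 cm of soil. Compounds, formulated as emulsifiable concentrates and diluted with water, were sprayed evenly over the soil surface at set doses in g/a. Herbicidal effect was scored on a rating scale three weeks later.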

Italian ryegrass [19] = assay: as above; settings: dose 3.2 g/a
Outline: as §4

common ragweed [20] = assay: as above; settings: dose 3.2 g/a
Outline: as §4

giant foxtail [21] = assay: as above; settings: dose 3.2 g/a
Outline: as §4

redroot pigweed [22] = assay: as above; settings: dose 3.2 g/a
Outline: as §4

velvetleaf [23] = assay: as above; settings: dose 3.2 g/a
Outline: as §4

barnyardgrass [24] = assay: as above; settings: dose 3.2 g/a
Outline: as §4

beadstraw = assay: as above; settings: dose 3.2 g/a
Outline: as §4

common lambsquater [25] = assay: as above; settings: dose 3.2 g/a
Outline: as §4

large crabgrass [26] = assay: as above; settings: dose 3.2 g/a
Outline: as §4

water foxtail [27] = assay: as above; settings: dose 3.2 g/a
Outline: as §4

posumbu knotweed [28] = assay: as above; settings: dose 3.2 g/a
Outline: as §4

Structure (SMILES) | a: transplanted rice, effect on crop (evaluation scale 0-5) (transplanted rice) | A: barnyardgrass, herbicidal effect (evaluation scale 0-5) (barnyardgrass [1]) | B: bulrush, herbicidal effect (evaluation scale 0-5) (bulrush [2]) | C: ducksalad, herbicidal effect (evaluation scale 0-5) (ducksalad [3]) | A: barnyardgrass, herbicidal effect (evaluation scale 0-5) (barnyardgrass [4]) | B: bulrush, herbicidal effect (evaluation scale 0-5) (bulrush [5]) | C: ducksalad, herbicidal effect (evaluation scale 0-5) (ducksalad [6]) | N: common chickweed, herbicidal effect (common chickweed [7]) | H: Italian ryegrass, herbicidal effect (Italian ryegrass [8]) | J: common ragweed, herbicidal effect (common ragweed [9]) | E: giant foxtail, herbicidal effect (giant foxtail [10]) | K: redroot pigweed, herbicidal effect (redroot pigweed [11]) | I: velvetleaf, herbicidal effect (velvetleaf [12]) | A: barnyardgrass, herbicidal effect (barnyardgrass [13]) | L: common lambsquater, herbicidal effect (common lambsquater [14]) | D: large crabgrass, herbicidal effect (large crabgrass [15]) | G: water foxtail, herbicidal effect (water foxtail [16]) | M: posumbu knotweed, herbicidal effect (posumbu knotweed [17]) | N: common chickweed, herbicidal effect (evaluation scale 0-5) (common chickweed [18]) | H: Italian ryegrass, herbicidal effect (evaluation scale 0-5) (Italian ryegrass [19]) | other results
CC1(C2CC2)CC(=O)N(Cc2ccccc2NS(=O)(=O)C(F)(F)F)CO1 (stereo not drawn) [II-44] | 3 (mortality of at least 40% and less than 70%) | 5 (mortality of 90% or above (nearly complete death)) | 5 (mortality of 90% or above (nearly complete death)) | 5 (mortality of 90% or above (nearly complete death)) | 5 (mortality of 90% or above (nearly complete death)) | 5 (mortality of 90% or above (nearly complete death)) | 5 (mortality of 90% or above (nearly complete death)) | 4 (mortality of at least 70% and less than 90%) | 4 (mortality of at least 70% and less than 90%) | 2 (mortality of at least 20% and less than 40%) | 3 (mortality of at least 40% and less than 70%) | 0 (mortality of less than 5% (almost ineffective)) | 3 (mortality of at least 40% and less than 70%) | 4 (mortality of at least 70% and less than 90%) | 1 (mortality of at least 5% and less than 20%) | 2 (mortality of at least 20% and less than 40%) | 4 (mortality of at least 70% and less than 90%) | 1 (mortality of at least 5% and less than 20%) | 2 (mortality of at least 20% and less than 40%) | 5 (mortality of 90% or above (nearly complete death)) | J: common ragweed, herbicidal effect (evaluation scale 0-5) (common ragweed [20]): 3 (mortality of at least 40% and less than 70%); E: giant foxtail, herbicidal effect (evaluation scale 0-5) (giant foxtail [21]): 4 (mortality of at least 70% and less than 90%); K: redroot pigweed, herbicidal effect (evaluation scale 0-5) (redroot pigweed [22]): 0 (mortality of less than 5% (almost ineffective)); I: velvetleaf, herbicidal effect (evaluation scale 0-5) (velvetleaf [23]): 3 (mortality of at least 40% and less than 70%); A: barnyardgrass, herbicidal effect (evaluation scale 0-5) (barnyardgrass [24]): 5 (mortality of 90% or above (nearly complete death)); O: beadstraw, herbicidal effect (evaluation scale 0-5) (beadstraw): 0 (mortality of less than 5% (almost ineffective)); L: common lambsquater, herbicidal effect (evaluation scale 0-5) (common lambsquater [25]): 0 (mortality of less than 5% (almost ineffective)); D: large crabgrass, herbicidal effect (evaluation scale 0-5) (large crabgrass [26]): 4 (mortality of at least 70% and less than 90%); G: water foxtail, herbicidal effect (evaluation scale 0-5) (water foxtail [27]): 5 (mortality of 90% or above (nearly complete death)); M: posumbu knotweed, herbicidal effect (evaluation scale 0-5) (posumbu knotweed [28]): 3 (mortality of at least 40% and less than 70%)
O=C1CC2(CCCC2)OCN1Cc1ccccc1NS(=O)(=O)C(F)(F)F [II-64] | 0 (mortality of less than 5% (almost ineffective)) | 5 (mortality of 90% or above (nearly complete death)) | 5 (mortality of 90% or above (nearly complete death)) | 5 (mortality of 90% or above (nearly complete death)) | 5 (mortality of 90% or above (nearly complete death)) | 5 (mortality of 90% or above (nearly complete death)) | 5 (mortality of 90% or above (nearly complete death)) | 4 (mortality of at least 70% and less than 90%) | 3 (mortality of at least 40% and less than 70%) | 3 (mortality of at least 40% and less than 70%) | 4 (mortality of at least 70% and less than 90%) | 0 (mortality of less than 5% (almost ineffective)) | 1 (mortality of at least 5% and less than 20%) | 4 (mortality of at least 70% and less than 90%) | 2 (mortality of at least 20% and less than 40%) | 4 (mortality of at least 70% and less than 90%) | 5 (mortality of 90% or above (nearly complete death)) | 3 (mortality of at least 40% and less than 70%) | 4 (mortality of at least 70% and less than 90%) | 5 (mortality of 90% or above (nearly complete death)) | J: common ragweed, herbicidal effect (evaluation scale 0-5) (common ragweed [20]): 4 (mortality of at least 70% and less than 90%); E: giant foxtail, herbicidal effect (evaluation scale 0-5) (giant foxtail [21]): 5 (mortality of 90% or above (nearly complete death)); K: redroot pigweed, herbicidal effect (evaluation scale 0-5) (redroot pigweed [22]): 4 (mortality of at least 70% and less than 90%); I: velvetleaf, herbicidal effect (evaluation scale 0-5) (velvetleaf [23]): 3 (mortality of at least 40% and less than 70%); A: barnyardgrass, herbicidal effect (evaluation scale 0-5) (barnyardgrass [24]): 5 (mortality of 90% or above (nearly complete death)); O: beadstraw, herbicidal effect (evaluation scale 0-5) (beadstraw): 4 (mortality of at least 70% and less than 90%); L: common lambsquater, herbicidal effect (evaluation scale 0-5) (common lambsquater [25]): 5 (mortality of 90% or above (nearly complete death)); D: large crabgrass, herbicidal effect (evaluation scale 0-5) (large crabgrass [26]): 5 (mortality of 90% or above (nearly complete death)); G: water foxtail, herbicidal effect (evaluation scale 0-5) (water foxtail [27]): 5 (mortality of 90% or above (nearly complete death)); M: posumbu knotweed, herbicidal effect (evaluation scale 0-5) (posumbu knotweed [28]): 5 (mortality of 90% or above (nearly complete death))
